Experiment [1] deals with T1, CgTHI6 (Nakaseomyces glabratus, UniProt Q6FV03).
T1 sequence (Q6FV03 1-540): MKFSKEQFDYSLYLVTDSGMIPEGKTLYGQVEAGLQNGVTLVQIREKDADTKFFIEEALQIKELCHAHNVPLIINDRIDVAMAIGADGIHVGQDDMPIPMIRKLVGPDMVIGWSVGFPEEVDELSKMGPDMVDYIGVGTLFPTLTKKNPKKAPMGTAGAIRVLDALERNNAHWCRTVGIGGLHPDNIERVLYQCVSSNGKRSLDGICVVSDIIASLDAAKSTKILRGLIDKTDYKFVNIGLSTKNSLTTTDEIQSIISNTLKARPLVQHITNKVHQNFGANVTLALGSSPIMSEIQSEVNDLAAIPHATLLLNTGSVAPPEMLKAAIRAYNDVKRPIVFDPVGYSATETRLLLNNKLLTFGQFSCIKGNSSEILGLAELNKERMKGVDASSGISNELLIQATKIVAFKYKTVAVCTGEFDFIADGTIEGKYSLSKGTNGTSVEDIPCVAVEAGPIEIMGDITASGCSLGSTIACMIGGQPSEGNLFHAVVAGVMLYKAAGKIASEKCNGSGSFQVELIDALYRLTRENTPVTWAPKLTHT
Briefly: X-ray crystal structure. In kind it is binding. The conditions noted are these: ThiM (C-terminal) domain ATP site; Mg2+.

In experiment [2] the target is T1, CgTHI6. Briefly: HPLC of ThMP formation at […] nm. The conditions noted are these: TPS activity; 1 mM HMP-PP, 1.2 mM Thz, 2 mM ATP, 2 mM MgSO4, room temperature, 2 h. It is filed as biochemical.
In experiment [3] the target is T1, CgTHI6. Briefly: HPLC of Thz-P formation at […] nm. It is filed as biochemical. The conditions noted are these: ThiM activity; 2 mM ATP, 1.2 mM Thz, 2 mM MgSO4, room temperature, 2 h.

As for `Nc1ncnc2c1ncn2[C@@H]1O[C@H](COP(=O)(O)OP(=O)(O)CP(=O)(O)O)[C@@H](O)[C@H]1O` [AMP-PCP], the “X-ray crystal structure (soaked, 3.3 A with Thz; 2.6 A with ThMP)” value in experiment [1] was “The ATP binding site is inferred from the complex containing the non-hydrolizable ATP analogue, AMP-PCP”.

Turning to `Cc1ncc(COP(=O)(O)OP(=O)(O)O)c(N)n1` [HMP-PP, 4-amino-5-hydroxymethyl-2-methylpyrimidine pyrophosphate], in experiment [2], the “HPLC of ThMP formation at 261 nm” value was “Incorporation of HMP-PP in the same reaction resulted in the production of ThMP”.

Turning to `Nc1ncnc2c1ncn2[C@@H]1O[C@H](COP(=O)(O)OP(=O)(O)OP(=O)(O)O)[C@@H](O)[C@H]1O` [ATP], the “HPLC of Thz-P formation at 261 nm” value in experiment [3] is “the purified protein was incubated with Thz and ATP, formation of Thz-P was noted”.

The values above are taken from article PMC2996881 (Biochemistry, 2010).
